The numbers were not newly measured in patent publication US20070196488A1, “Oral matrix formulations comprising licarbazepine” (priority 2004, published 2007), which cites them from elsewhere.

For the data set, the system named is epilepsy. The following applies: racemate compared with both pure enantiomers.

Each structure is given as a SMILES string.

With `NC(=O)N1c2ccccc2CC(O)c2ccccc21` (racemic) [Licarbazepine, 10,11-dihydro-10-hydroxy-5H-dibenz[b,f]azepine-5-carboxamide], the efficacy against epilepsy result is “equal efficacy”.
